Results reported in ChEMBL document CHEMBL4196112, “Design of Selective sPLA2-X Inhibitor (-)-2-{2-[Carbamoyl-6-(trifluoromethoxy)-1H-indol-1-yl]pyridine-2-yl}propanoic Acid” (ACS Med Chem Lett, 2018).
≈ marks a conversion by molar mass, not a printed value.

How the values were obtained:
[1] = Oral bioavailability in C57Bl/6J mouse at 50 umol/kg; assay type: ADME, organism-based; settings: in vivo
[2] = target: T1, Group 10 secretory phospholipase A2 (Homo sapiens, UniProt O15496); assay: Inhibition of recombinant human sPLA2-10 using human HDL as substrate pretreated for 20 mins followed by substrate addition and measured after 60 mins by NEFA based assay
T1 sequence (O15496 whole entry): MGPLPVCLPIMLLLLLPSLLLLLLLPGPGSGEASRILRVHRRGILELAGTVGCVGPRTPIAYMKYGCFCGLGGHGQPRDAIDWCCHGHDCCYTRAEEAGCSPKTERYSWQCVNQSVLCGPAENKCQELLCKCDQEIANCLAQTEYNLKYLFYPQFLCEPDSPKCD

[3] = target: T1, Group 10 secretory phospholipase A2; assay: Inhibition of sPLA2-10 (unknown origin) using 1-palmitoyl-2-oleoyl-sn-glycero-3-phosphocholine as substrate pretreated for 20 mins followed by substrate addition and measured after 60 mins by NEFA based assay
Mus musculus [4] = assay: Toxicity in ApoE knockout pro-atherogenic western diet-induced Tac mouse carotid artery ligation model of atherosclerosis assessed as histopathological changes in kidney at 75 to 150 umol/kg/day mixed with food measured for 3 weeks by hematoxylin-eosin staining based assay; assay type: organism-based; settings: in vivo, po, 504 h
[5] = target: Sodium channel protein type 5 subunit alpha (Homo sapiens, UniProt Q14524); assay: Inhibition of human Nav1.5 expressed in CHO cells by ionworks patch clamp assay; assay type: cell-based
[6] = target: Voltage-dependent T-type calcium channel subunit alpha-1H (Homo sapiens, UniProt O95180); assay: Inhibition of human Cav3.2 expressed in CHO cells by ionworks patch clamp assay; assay type: cell-based
Cytochrome P450 2C9 = Cytochrome P450 2C9 (Homo sapiens, UniProt P11712); assay: Inhibition of recombinant human CYP2C9; assay type: ADME
[7] = target: Voltage-dependent L-type calcium channel subunit alpha-1C (Homo sapiens, UniProt Q13936); assay: Inhibition of human Cav1.2 expressed in CHO cells by ionworks patch clamp assay; assay type: cell-based
Mus musculus [8] = assay: Unbound clearance in C57Bl/6J mouse at 10 umol/kg, iv or 50 umol/kg, po; assay type: ADME, organism-based; settings: in vivo
[9] = target: Group 10 secretory phospholipase A2 (Mus musculus, UniProt Q9QXX3); assay: Inhibition of mouse sPLA2-10
Mus musculus [10] = assay: Unbound clearance in C57Bl/6J mouse administered iv or po; assay type: ADME, organism-based; settings: in vivo
[11] = Volume of distribution at steady state in C57Bl/6J mouse at 10 umol/kg, iv or 50 umol/kg, po; assay type: ADME, organism-based; settings: in vivo, read-out: Vdss
[12] = Ratio of free drug level in ApoE knockout pro-atherogenic western diet-induced Tac mouse at 150 umol/kg measured after 3 weeks to IC90 for recombinant human sPLA2-10 using human HDL as substrate; assay type: ADME; settings: in vivo, 504 h
Cytochrome P450 3A4 = Cytochrome P450 3A4 (Homo sapiens, UniProt P08684); assay: Inhibition of recombinant human CYP3A4; assay type: ADME
Mus musculus [13] = assay: Toxicity in ApoE knockout pro-atherogenic western diet-induced Tac mouse carotid artery ligation model of atherosclerosis assessed as histopathological changes in intestine at 75 to 150 umol/kg/day mixed with food measured for 3 weeks by hematoxylin-eosin staining based assay; assay type: organism-based; settings: in vivo, po, 504 h
Mus musculus [14] = assay: Toxicity in ApoE knockout pro-atherogenic western diet-induced Tac mouse carotid artery ligation model of atherosclerosis assessed as histopathological changes in liver at 75 to 150 umol/kg/day mixed with food measured for 3 weeks by hematoxylin-eosin staining based assay; assay type: organism-based; settings: in vivo, po, 504 h
Cytochrome P450 2D6 = Cytochrome P450 2D6 (Homo sapiens, UniProt P10635); assay: Inhibition of recombinant human CYP2D6; assay type: ADME
[15] = Inhibition of human Iks expressed in CHO cells by ionworks patch clamp assay; assay type: cell-based
[16] = Lipophilicity, log D of compound at pH 7.4; settings: buffer
[17] = Drug metabolism in human liver microsomes in presence of glutathione after 30 mins; assay type: ADME, microsome; settings: 0.5 h
Mus musculus [18] = assay: Toxicity in ApoE knockout pro-atherogenic western diet-induced Tac mouse carotid artery ligation model of atherosclerosis assessed as histopathological changes in ceacum at 75 to 150 umol/kg/day mixed with food measured for 3 weeks by hematoxylin-eosin staining based assay; assay type: organism-based; settings: in vivo, po, 504 h
Mus musculus [19] = assay: Toxicity in ApoE knockout pro-atherogenic western diet-induced Tac mouse carotid artery ligation model of atherosclerosis assessed as reduction in body weight at 75 to 150 umol/kg/day mixed with food measured for 3 weeks; assay type: organism-based; settings: in vivo, po, 504 h
Mus musculus [20] = assay: Toxicity in ApoE knockout pro-atherogenic western diet-induced Tac mouse carotid artery ligation model of atherosclerosis assessed as histopathological changes in lung at 75 to 150 umol/kg/day mixed with food measured for 3 weeks by hematoxylin-eosin staining based assay; assay type: organism-based; settings: in vivo, po, 504 h
[21] = Half life in human hepatocytes; assay type: ADME, cell-based, Hepatocyte
Mus musculus [22] = assay: Toxicity in ApoE knockout pro-atherogenic western diet-induced Tac mouse carotid artery ligation model of atherosclerosis assessed as histopathological changes in duodenum at 75 to 150 umol/kg/day mixed with food measured for 3 weeks by hematoxylin-eosin staining based assay; assay type: organism-based; settings: in vivo, po, 504 h
Cytochrome P450 1A2 = Cytochrome P450 1A2 (Homo sapiens, UniProt P05177); assay: Inhibition of recombinant human CYP1A2; assay type: ADME
Cytochrome P450 2C8 = Cytochrome P450 2C8 (Homo sapiens, UniProt P10632); assay: Inhibition of recombinant human CYP2C8; assay type: ADME
[23] = Solubility of the compound in DMSO/HBSS solution at pH 7.4 after 24 hrs by LC-UV/MS analysis; assay type: physicochemical
[24] = Ratio of free drug level in ApoE knockout pro-atherogenic western diet-induced Tac mouse at 150 umol/kg measured after 1 week to IC90 for recombinant human sPLA2-10 using human HDL as substrate; assay type: ADME; settings: in vivo, 168 h
[25] = Fraction unbound in C57Bl/6J mouse plasma; assay type: ADME, cell-free
Mus musculus [26] = assay: Toxicity in ApoE knockout pro-atherogenic western diet-induced Tac mouse carotid artery ligation model of atherosclerosis assessed as histopathological changes in heart at 75 to 150 umol/kg/day mixed with food measured for 3 weeks by hematoxylin-eosin staining based assay; assay type: organism-based; settings: in vivo, po, 504 h
Phospholipase A2 group V = target: T2, Phospholipase A2 group V (Homo sapiens, UniProt P39877); assay: Inhibition of sPLA2-5 (unknown origin) using 1-palmitoyl-2-oleoyl-sn-glycero-3-phosphocholine as substrate pretreated for 20 mins followed by substrate addition and measured after 60 mins by NEFA based assay
T2 sequence (P39877 whole entry): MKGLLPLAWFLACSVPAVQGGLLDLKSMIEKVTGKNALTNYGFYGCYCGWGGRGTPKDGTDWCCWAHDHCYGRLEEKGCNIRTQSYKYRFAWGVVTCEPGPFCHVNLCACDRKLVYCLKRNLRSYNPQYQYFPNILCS

Mus musculus [27] = assay: Toxicity in ApoE knockout pro-atherogenic western diet-induced Tac mouse carotid artery ligation model of atherosclerosis assessed as histopathological changes in stomach at 75 to 150 umol/kg/day mixed with food measured for 3 weeks by hematoxylin-eosin staining based assay; assay type: organism-based; settings: in vivo, po, 504 h
Mus musculus [28] = assay: Toxicity in ApoE knockout pro-atherogenic western diet-induced Tac mouse carotid artery ligation model of atherosclerosis assessed as effect on liver enzyme levels at 75 to 150 umol/kg/day mixed with food measured for 3 weeks; assay type: organism-based; settings: in vivo, po, 504 h
[29] = target: Voltage-gated inwardly rectifying potassium channel KCNH2 (Homo sapiens, UniProt Q12809); assay: Inhibition of human ERG expressed in CHO cells by ionworks patch clamp assay; assay type: cell-based
[30] = Ratio of free drug level in ApoE knockout pro-atherogenic western diet-induced Tac mouse at 75 umol/kg measured after 3 weeks to IC50 for recombinant human sPLA2-10 using human HDL as substrate; assay type: ADME; settings: in vivo, 504 h
[31] = target: T3, Phospholipase A2, membrane associated (Homo sapiens, UniProt P14555); assay: Inhibition of sPLA2-2A (unknown origin) using 1-palmitoyl-2-oleoyl-sn-glycero-3-phosphocholine as substrate pretreated for 20 mins followed by substrate addition and measured after 60 mins by NEFA based assay
T3 sequence (P14555 whole entry): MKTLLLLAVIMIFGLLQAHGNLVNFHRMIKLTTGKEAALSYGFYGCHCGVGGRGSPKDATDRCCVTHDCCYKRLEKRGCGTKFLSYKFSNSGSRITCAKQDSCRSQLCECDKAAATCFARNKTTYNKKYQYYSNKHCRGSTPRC

Cytochrome P450 2C19 = Cytochrome P450 2C19 (Homo sapiens, UniProt P33261); assay: Inhibition of recombinant human CYP2C19; assay type: ADME
[32] = Apparent permeability in human Caco2 cells; assay type: ADME, cell-based; settings: Caco-2
[33] = target: A-type voltage-gated potassium channel KCND3 (Homo sapiens, UniProt Q9UK17); assay: Inhibition of human Kv4.3 expressed in CHO cells by ionworks patch clamp assay; assay type: cell-based
[34] = Ratio of free drug level in ApoE knockout pro-atherogenic western diet-induced Tac mouse at 75 umol/kg measured after 1 week to IC50 for recombinant human sPLA2-10 using human HDL as substrate; assay type: ADME; settings: in vivo, 168 h

Sequence of Cytochrome P450 1A2 (P05177 whole entry): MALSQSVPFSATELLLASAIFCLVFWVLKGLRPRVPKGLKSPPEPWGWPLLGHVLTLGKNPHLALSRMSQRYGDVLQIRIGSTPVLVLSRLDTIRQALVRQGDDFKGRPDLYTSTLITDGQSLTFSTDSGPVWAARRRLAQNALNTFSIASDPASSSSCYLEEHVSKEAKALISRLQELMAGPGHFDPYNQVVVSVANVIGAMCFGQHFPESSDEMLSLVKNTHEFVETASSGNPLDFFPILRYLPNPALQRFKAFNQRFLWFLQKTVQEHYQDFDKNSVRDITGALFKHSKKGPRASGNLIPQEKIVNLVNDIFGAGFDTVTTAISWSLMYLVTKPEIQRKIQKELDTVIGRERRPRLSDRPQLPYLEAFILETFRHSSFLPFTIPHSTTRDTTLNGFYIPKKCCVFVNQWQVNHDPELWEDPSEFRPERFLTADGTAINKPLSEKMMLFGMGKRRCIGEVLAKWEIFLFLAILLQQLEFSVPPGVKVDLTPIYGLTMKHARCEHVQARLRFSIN
Sequence of Cytochrome P450 2C19 (P33261 whole entry): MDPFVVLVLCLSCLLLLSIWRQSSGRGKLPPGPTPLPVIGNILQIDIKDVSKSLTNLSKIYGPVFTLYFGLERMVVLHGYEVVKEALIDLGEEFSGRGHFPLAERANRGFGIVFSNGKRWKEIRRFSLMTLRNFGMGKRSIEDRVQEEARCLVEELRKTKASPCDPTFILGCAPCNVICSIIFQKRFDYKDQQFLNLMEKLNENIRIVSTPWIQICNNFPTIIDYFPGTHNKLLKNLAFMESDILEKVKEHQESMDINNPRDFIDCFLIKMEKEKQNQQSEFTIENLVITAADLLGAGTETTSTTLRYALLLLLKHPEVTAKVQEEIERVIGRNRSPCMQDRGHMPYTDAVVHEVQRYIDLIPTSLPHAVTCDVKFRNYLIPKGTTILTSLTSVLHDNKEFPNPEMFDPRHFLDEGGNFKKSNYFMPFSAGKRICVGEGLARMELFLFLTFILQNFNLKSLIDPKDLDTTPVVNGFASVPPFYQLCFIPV
Sequence of Voltage-dependent L-type calcium channel subunit alpha-1C (Q13936 whole entry): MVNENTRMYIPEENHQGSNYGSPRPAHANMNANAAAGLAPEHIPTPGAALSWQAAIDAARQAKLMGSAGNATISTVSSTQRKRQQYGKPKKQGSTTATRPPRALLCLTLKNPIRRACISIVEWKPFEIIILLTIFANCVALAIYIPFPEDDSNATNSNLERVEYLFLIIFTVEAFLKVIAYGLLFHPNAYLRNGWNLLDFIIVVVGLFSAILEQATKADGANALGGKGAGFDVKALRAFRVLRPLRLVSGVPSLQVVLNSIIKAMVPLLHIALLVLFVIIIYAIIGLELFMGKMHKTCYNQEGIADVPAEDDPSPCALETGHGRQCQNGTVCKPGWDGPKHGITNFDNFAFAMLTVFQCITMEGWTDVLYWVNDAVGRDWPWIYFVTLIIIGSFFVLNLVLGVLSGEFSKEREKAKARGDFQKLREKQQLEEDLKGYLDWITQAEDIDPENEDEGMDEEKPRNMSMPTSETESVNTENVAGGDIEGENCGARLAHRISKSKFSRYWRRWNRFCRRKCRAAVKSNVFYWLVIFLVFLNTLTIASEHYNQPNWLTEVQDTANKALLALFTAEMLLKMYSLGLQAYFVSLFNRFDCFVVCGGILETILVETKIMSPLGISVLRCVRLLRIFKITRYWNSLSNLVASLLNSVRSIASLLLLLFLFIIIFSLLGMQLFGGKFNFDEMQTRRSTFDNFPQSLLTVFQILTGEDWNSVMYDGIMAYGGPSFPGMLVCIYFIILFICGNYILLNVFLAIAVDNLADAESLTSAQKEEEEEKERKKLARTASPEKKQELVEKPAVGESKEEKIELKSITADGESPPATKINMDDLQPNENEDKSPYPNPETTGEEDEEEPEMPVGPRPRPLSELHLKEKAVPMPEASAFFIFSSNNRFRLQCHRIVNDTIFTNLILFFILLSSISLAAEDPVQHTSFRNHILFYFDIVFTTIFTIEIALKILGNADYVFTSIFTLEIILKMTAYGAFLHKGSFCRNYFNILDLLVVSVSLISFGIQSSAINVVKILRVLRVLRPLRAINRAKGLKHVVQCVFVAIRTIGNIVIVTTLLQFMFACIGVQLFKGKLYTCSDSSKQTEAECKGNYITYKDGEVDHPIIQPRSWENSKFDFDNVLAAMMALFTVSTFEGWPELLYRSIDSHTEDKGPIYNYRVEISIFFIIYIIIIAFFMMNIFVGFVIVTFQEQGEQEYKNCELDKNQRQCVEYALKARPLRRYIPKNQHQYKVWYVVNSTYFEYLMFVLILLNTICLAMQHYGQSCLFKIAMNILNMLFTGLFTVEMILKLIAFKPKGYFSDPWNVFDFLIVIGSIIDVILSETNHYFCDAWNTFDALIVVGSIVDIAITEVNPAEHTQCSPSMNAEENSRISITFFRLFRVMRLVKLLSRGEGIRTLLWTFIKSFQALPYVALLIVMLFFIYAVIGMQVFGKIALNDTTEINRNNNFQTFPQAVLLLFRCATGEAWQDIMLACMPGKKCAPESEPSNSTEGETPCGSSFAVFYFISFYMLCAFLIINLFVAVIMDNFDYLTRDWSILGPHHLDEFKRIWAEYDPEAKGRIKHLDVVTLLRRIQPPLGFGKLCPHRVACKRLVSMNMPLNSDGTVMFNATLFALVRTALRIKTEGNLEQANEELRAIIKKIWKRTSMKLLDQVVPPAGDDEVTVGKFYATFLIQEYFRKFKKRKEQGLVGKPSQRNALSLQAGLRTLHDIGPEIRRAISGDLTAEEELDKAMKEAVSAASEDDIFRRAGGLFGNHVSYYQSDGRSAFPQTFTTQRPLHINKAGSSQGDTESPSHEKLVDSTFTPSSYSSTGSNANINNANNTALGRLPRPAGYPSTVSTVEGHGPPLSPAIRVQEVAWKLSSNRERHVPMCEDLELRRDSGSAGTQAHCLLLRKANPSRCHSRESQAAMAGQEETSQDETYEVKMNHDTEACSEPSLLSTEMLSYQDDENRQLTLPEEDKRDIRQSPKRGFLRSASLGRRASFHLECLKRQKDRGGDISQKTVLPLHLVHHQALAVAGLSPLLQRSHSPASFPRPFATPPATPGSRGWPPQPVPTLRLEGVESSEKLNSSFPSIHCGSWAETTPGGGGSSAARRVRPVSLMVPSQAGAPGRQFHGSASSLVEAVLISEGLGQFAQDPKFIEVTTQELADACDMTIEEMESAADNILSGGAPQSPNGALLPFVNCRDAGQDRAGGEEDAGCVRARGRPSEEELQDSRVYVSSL
Sequence of A-type voltage-gated potassium channel KCND3 (Q9UK17 whole entry): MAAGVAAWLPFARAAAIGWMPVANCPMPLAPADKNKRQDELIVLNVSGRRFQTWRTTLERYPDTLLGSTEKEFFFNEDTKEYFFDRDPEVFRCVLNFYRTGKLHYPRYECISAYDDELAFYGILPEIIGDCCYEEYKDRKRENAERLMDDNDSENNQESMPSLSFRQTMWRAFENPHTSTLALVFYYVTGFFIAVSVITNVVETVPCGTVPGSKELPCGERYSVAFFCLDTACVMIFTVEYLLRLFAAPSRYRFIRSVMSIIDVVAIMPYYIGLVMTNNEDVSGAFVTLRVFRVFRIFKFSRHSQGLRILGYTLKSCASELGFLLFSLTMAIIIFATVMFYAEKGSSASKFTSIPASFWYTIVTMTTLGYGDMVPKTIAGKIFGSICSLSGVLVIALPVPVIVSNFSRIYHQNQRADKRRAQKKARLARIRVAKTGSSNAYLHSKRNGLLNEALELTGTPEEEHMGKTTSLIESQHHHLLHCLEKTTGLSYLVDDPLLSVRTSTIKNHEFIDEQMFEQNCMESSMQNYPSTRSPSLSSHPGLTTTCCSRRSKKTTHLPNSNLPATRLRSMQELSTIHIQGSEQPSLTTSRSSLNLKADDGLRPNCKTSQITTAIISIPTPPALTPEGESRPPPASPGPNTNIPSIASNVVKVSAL
Sequence of Cytochrome P450 2C9 (P11712 whole entry): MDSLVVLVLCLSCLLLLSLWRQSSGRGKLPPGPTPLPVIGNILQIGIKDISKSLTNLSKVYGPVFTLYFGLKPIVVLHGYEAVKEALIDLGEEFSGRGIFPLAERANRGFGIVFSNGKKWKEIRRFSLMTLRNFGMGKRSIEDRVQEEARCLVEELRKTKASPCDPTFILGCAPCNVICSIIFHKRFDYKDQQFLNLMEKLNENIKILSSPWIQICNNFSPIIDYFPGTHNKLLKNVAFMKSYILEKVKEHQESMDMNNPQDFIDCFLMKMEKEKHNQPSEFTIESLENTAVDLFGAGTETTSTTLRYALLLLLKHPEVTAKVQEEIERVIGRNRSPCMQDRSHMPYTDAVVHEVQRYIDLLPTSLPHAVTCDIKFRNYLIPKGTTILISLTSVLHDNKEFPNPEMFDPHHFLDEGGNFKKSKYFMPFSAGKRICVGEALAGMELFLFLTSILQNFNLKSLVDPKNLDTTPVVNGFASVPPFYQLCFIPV
Sequence of Group 10 secretory phospholipase A2 (Mus musculus, UniProt Q9QXX3) (Q9QXX3 whole entry): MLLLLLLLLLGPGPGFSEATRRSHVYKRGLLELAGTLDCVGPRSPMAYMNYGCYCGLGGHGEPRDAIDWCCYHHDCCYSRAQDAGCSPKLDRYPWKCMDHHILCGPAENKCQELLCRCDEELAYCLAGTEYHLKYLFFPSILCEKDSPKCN
Sequence of Cytochrome P450 3A4 (P08684 whole entry): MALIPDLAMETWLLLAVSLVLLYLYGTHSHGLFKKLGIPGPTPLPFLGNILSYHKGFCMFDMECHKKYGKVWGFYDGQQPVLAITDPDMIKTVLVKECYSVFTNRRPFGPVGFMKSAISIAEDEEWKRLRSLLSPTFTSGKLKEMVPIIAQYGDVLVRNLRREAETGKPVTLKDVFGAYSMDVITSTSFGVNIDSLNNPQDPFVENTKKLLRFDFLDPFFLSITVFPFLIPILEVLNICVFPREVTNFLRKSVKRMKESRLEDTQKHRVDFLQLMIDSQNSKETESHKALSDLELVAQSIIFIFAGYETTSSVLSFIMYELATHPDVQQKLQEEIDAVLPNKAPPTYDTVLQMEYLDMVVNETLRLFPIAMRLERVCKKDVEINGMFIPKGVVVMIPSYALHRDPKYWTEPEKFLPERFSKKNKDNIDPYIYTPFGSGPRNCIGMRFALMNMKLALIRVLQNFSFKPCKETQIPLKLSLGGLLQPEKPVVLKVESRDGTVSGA

Molecule `CC(CC(=O)O)c1cccc(-n2c(C(N)=O)cc3ccc(OC(F)(F)F)cc32)n1` (stereo in doubt; (-)-17) has a bioavailability [1] of 95%, an IC50 [2] of 0.042 µM and an IC50 [3] of 0.014 µM. The Activity (Mus musculus [4]) was “Non-Toxic”, the IC50 [5] was > 33 µM and the IC50 [6] was > 33 µM. The IC50 (Cytochrome P450 2C9) was > 20 µM, the IC50 [7] was > 33 µM and the CL free (Mus musculus [8]) was 306 mL/min/kg. It also gave an IC50 [9] of 0.075 µM, a CL free (Mus musculus [10]) of 306 mL/min/kg and a Vd [11] of 0.52 L/kg. The Ratio [12] was > 7, the IC50 (Cytochrome P450 3A4) was > 20 µM and the Activity (Mus musculus [13]) was “Non-Toxic”. For the same molecule, the Activity (Mus musculus [14]) was “Non-Toxic”, the IC50 (Cytochrome P450 2D6) was > 20 µM and the IC50 [15] was > 33 µM. The logD [16] was 0.9, the Drug metabolism [17] was “Metabolite_Notdetected” and the Activity (Mus musculus [18]) was “Non-Toxic”. The Activity (Mus musculus [19]) was “Non-Toxic”, the Activity (Mus musculus [20]) was “Non-Toxic” and the half-life [21] was > 2.88 h. For the same molecule, the Activity (Mus musculus [22]) was “Non-Toxic”, the IC50 (Cytochrome P450 1A2) was > 20 µM and the IC50 (Cytochrome P450 2C8) was > 20 µM. The solubility at 24 h [23] was 100 µM (≈ 40.7 µg/mL), the Ratio [24] was > 7 and the fraction unbound [25] was 0.05. The Activity (Mus musculus [26]) was “Non-Toxic”, the IC50 (Phospholipase A2 group V) was 5.5 µM and the Activity (Mus musculus [27]) was “Non-Toxic”. For the same molecule, the Activity (Mus musculus [28]) was “Non-Toxic”, the IC50 [29] was > 33 µM and the Ratio [30] was > 7. The IC50 [31] was 0.63 µM, the IC50 (Cytochrome P450 2C19) was > 20 µM and the Papp [32] was 5.8 ×10⁻⁶ cm/s. The IC50 [33] was > 33 µM and the Ratio [34] was > 7.
